Data: article PMC3288537 (ACS Chemical Biology, 2011)

Target: T1, HePTP (Homo sapiens, UniProt P35236)
T1 sequence (P35236 1-360): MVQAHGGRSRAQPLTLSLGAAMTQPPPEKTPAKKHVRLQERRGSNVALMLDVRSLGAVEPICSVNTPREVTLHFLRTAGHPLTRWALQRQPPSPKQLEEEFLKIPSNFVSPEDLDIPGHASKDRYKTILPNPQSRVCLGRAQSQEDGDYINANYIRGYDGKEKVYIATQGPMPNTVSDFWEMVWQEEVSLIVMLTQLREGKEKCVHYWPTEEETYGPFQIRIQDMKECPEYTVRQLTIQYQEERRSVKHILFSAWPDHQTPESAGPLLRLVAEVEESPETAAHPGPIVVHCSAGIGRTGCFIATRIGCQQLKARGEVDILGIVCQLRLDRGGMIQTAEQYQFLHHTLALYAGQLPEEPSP
Assay: Dose-response OMFP phosphatase assay, HePTP
Type: biochemical
Conditions: OMFP substrate

`O=C(O)c1ccccc1` [benzoic acid, reference compound] was tested. Which “activity against HePTP (in words)” value did it give?
Its value is “did not inhibit”.
